Measured values taken from US8697694B2, “Substituted pyridine and pyrimidine derivatives and their use in treating viral infections” (priority 2008, dated 2014).
Read-outs that look alike come from different tables or passages of the source.

Test system: HCV replicon cells
Assay: Cell-based HCV replicon assay (replicon RNA level by real time PCR, Taqman)
Conditions: HCV replicon cells, read-out: EC90 (μM) range
Summary of the method: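 HCV replicon cells treated 3 days with 10 serial 2-fold compound dilutions (top 25 μM to 1 μM; 0.5% DMSO, 10% FBS). Replicon RNA quantified by multiplex Taqman RT-PCR (NS5B amplicon, GAPDH control); EC50 and EC90 = concentrations giving ΔCT of 1 and 3.2 over baseline.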

[1] = Hepatitis C virus, 72 h, harvested on day 3, replicon RNA by real time PCR, calculated EC90 reported as range class
[2] = Hepatitis C virus, 72 h, harvested day 3, replicon RNA by real time PCR, reported as range class
[3] = Hepatitis C virus, 72 h, replicon RNA level by real time PCR, harvested day 3
[4] = Hepatitis C virus, 72 h, replicon RNA level by real time PCR (Taqman), harvested on day 3, calculated EC90 reported as range class
[5] = Hepatitis C virus, 72 h, replicon RNA level by real time PCR (Taqman), day 3, calculated EC90
[6] = Hepatitis C virus, 72 h, harvested day 3, replicon RNA by real time PCR, given as number

## Cc1ccc(CNc2nc(C)c(-c3nc4ccccc4s3)c(N[C@@H]3C[C@H](CO)[C@H]4OC(C)(C)O[C@H]43)n2)s1 [Example 496]
[1]
  EC90: < 0.5 µM

## Cc1nc(N[C@H](C)c2ccc(OC(F)(F)F)cc2)nc(N[C@@H]2C[C@H](C(C)O)[C@@H](O)[C@H]2O)c1-c1nc2ccccc2s1 (single isomer, unassigned) [Example 1646]
Replicon RNA level by real time PCR, harvested day 3
  EC90: 0.5 to 5 µM

## Cc1nc(NCCF)nc(N[C@@H]2C[C@H](CO)[C@@H](O)[C@H]2O)c1-c1nc2ccccc2s1 [Example 216]
[2]
  EC90: 0.5 to 5 µM

## OC[C@H]1C[C@@H](Nc2nc(NCC3CC3)nc(Cl)c2-c2nc3ccccc3s2)[C@H](O)[C@@H]1O [Example 504]
[1]
  EC90: < 0.5 µM

## Cc1nc(N[C@@H](c2ccsc2)C(F)(F)F)nc(N[C@@H]2C[C@H](CO)[C@@H](O)[C@H]2O)c1-c1nc2c(C)nccc2s1 [Example 1361]
[3]
  EC90: < 0.5 µM

## Cc1nc(Nc2cccc(F)c2)nc(N[C@@H]2C[C@H](CO)[C@@H](O)[C@H]2O)c1-c1nc2cnccc2s1 [Example 1056]
[4]
  EC90: < 0.5 µM

## COc1cnccc1Nc1nc(C)c(-c2nc3ccccc3s2)c(N[C@@H]2C[C@H](CO)[C@H]3OC(C)(C)O[C@H]32)n1 [Example 1130]
[4]
  EC90: > 5 µM

## OC[C@H]1C[C@@H](Nc2nc(NCc3ccccc3F)nc(Cl)c2-c2nc3ccccc3s2)[C@H](O)[C@@H]1O [Example 232]
[1]
  EC90: < 0.5 µM

## Cc1nc(NCC(F)(F)F)nc(N[C@@H]2C[C@H](CC#N)[C@@H](O)[C@H]2O)c1-c1nc2ccccc2s1 [Example 1635]
[3]
  EC90: < 0.5 µM

## CNc1ccc2nc(-c3c(Cl)nc(N)nc3N[C@@H]3C[C@H](CO)[C@@H](O)[C@H]3O)sc2c1 [Example 196]
[2]
  EC90: < 0.5 µM

## Cc1nc(N)nc(N[C@@H]2C[C@H](CO)[C@@H](O)[C@H]2O)c1-c1nc2ccccc2s1 [Example 119]
[2]
  EC90: < 0.5 µM

## COCCNC[C@H]1C[C@@H](Nc2nc(NCC(F)(F)F)nc(C)c2-c2nc3ccccc3s2)[C@H](O)[C@@H]1O [Example 1069]
[4]
  EC90: 0.5 to 5 µM

## Cc1nc(NCC2CCOCC2)nc(N[C@@H]2C[C@H](CO)[C@@H](O)[C@H]2O)c1-c1nc2ccccc2s1 [Example 449]
[1]
  EC90: < 0.5 µM

## Nc1nc(Cl)c(-c2cc3cnccc3o2)c(N[C@@H]2C[C@H](CO)[C@@H](O)[C@H]2O)n1 [Example 8]
[2]
  EC90: 0.5 to 5 µM

## Cc1nc(NCC(F)(F)F)nc(N[C@@H]2C[C@H](CS(C)(=O)=O)[C@@H](O)[C@H]2O)c1-c1nc2ccccc2s1 [Example 1357]
[3]
  EC90: < 0.5 µM

## Nc1nc(Cl)c(-c2nc3ccccc3s2)c(N[C@@H]2C[C@H](CO)[C@@H](O)[C@H]2O)n1 [Example 105]
[2]
  EC90: < 0.5 µM

## Cc1nc(NCC(F)(F)F)nc(N[C@@H]2C[C@H](CO)[C@H]3OC(C)(C)O[C@H]32)c1-c1nc2ncccc2o1 [Example 2006]
[5]
  EC90: 0.5 to 5 µM

## Cc1ccc([C@@H](C)Nc2nc(C)c(-c3nc4c(C)nccc4s3)c(N[C@@H]3C[C@H](CO)[C@@H](O)[C@H]3O)n2)cc1 [Example 1320]
[4]
  EC90: < 0.5 µM

## CCCCCNc1nc(Cl)c(-c2cc3cc(C)ncc3o2)c(N[C@@H]2C[C@H](CO)[C@@H](O)[C@H]2O)n1 [Example 451]
[1]
  EC90: < 0.5 µM

## CCc1nccc2sc(-c3c(C)nc(N[C@H](C)c4ccc(C)cc4)nc3N[C@@H]3C[C@H](CO)[C@@H](O)[C@H]3O)nc12 [Example 1335]
[4]
  EC90: < 0.5 µM

## COc1cccc(OC)c1Nc1nc(C)c(-c2nc3ccccc3s2)c(N[C@@H]2C[C@H](CO)[C@@H](O)[C@H]2O)n1 [Example 1125]
[4]
  EC90: > 5 µM

## Cc1nc(NCc2ccc3c(c2)OCO3)nc(N[C@@H]2C[C@H](CO)[C@@H](O)[C@H]2O)c1-c1nc2ccccc2s1 [Example 1203]
[4]
  EC90: 0.5 to 5 µM

## Nc1nc(Cl)c(-c2ccc(C=O)o2)c(N[C@@H]2C[C@H](CO)[C@@H](O)[C@H]2O)n1 [Example 156]
[2]
  EC90: > 5 µM

## Cc1nc(NCc2ccc(C(F)(F)F)cc2)nc(N[C@@H]2C[C@H](CO)[C@@H](O)[C@H]2O)c1-c1nc2ccccc2s1 [Example 242]
[1]
  EC90: < 0.5 µM

## Cc1nc(NCC2CC2)nc(N[C@@H]2C[C@H](CO)C[C@H]2O)c1-c1nc2ccccc2s1 [Example 1251]
[4]
  EC90: 0.5 to 5 µM

## Cc1nc(NCC(F)(F)F)nc(N[C@H]2CN[C@@H](CO)C2)c1-c1nc2ccccc2s1 [Example 1349]
[3]
  EC90: > 5 µM

## Cc1cc2sc(-c3c(C)nc(NCC4CC4)nc3N[C@@H]3C[C@H](CO)[C@@H](O)[C@H]3O)nc2c(C)n1 [Example 1134]
[4]
  EC90: < 0.5 µM

## CN(C)c1nc(N[C@@H]2C[C@H](CO)[C@@H](O)[C@H]2O)c(-c2nc3ccccc3s2)c(-c2cccs2)n1 [Example 415]
[2]
  EC90: > 5 µM

## CCOc1ccc2nc(-c3c(Cl)nc(N(C)C)nc3N[C@@H]3C[C@H](CO)[C@@H](O)[C@H]3O)sc2c1 [Example 203]
[2]
  EC90: > 5 µM

## Cc1nc(NC2CCOCC2)nc(N[C@@H]2C[C@H](CO)[C@@H](O)[C@H]2O)c1-c1nc2ccccc2s1 [Example 425]
[1]
  EC90: < 0.5 µM

## Cc1nc(Nc2ccccc2)nc(N[C@@H]2C[C@H](CO)[C@@H](O)[C@H]2O)c1-c1nc2cnccc2s1 [Example 1216]
[4]
  EC90: 0.5 to 5 µM

## Cc1nc(NCC(F)(F)F)nc(N[C@@H]2C[C@H](CO)[C@@H](O)[C@@]2(C)O)c1-c1nc2cnccc2s1 [Example 1709]
[3]
  EC90: < 0.5 µM

## Cc1nc(NCCNS(C)(=O)=O)nc(N[C@@H]2C[C@H](CO)[C@H]3OC(C)(C)O[C@H]32)c1-c1nc2ccccc2s1 [Example 257]
[1]
  EC90: < 0.5 µM

## COc1cccc(Nc2nc(C)c(-c3nc4ccccc4s3)c(N[C@@H]3C[C@H](CO)[C@@H](O)[C@H]3O)n2)c1 [Example 1122]
[4]
  EC90: 0.5 to 5 µM

## Cc1nc(NCC(F)(F)F)nc(NC2CCNCC2)c1-c1nc2ccccc2s1 [Example 1516]
[3]
  EC90: 0.5 to 5 µM

## Cc1ccc(Nc2nc(C)c(-c3nc4ccccc4s3)c(N[C@@H]3C[C@H](CO)[C@@H](O)[C@H]3O)n2)cc1 [Example 1045]
[4]
  EC90: > 5 µM

## Cc1nc(N[C@H](C)c2ccc(C(F)(F)F)cc2)nc(N[C@@H]2C[C@H](CO)[C@@H](O)[C@H]2O)c1-c1nc2c(C)nccc2s1 [Example 1356]
[3]
  EC90: < 0.5 µM

## CCC1(O)[C@H](O)[C@@H](CO)C[C@H]1Nc1nc(NCC2CC2)nc(C)c1-c1nc2cnccc2s1 (stereo partly shown) [Example 1385]
[3]
  EC90: < 0.5 µM

## Cc1nc(NCC(F)(F)F)nc(N[C@@H]2C[C@H](CNS(=O)(=O)C3CC3)[C@@H](O)[C@H]2O)c1-c1nc2ccccc2s1 [Example 1513]
[3]
  EC90: 0.5 to 5 µM

## CCOCCNc1nc(C)c(-c2nc3cc(OC(F)F)c(OC(F)F)cc3s2)c(N[C@@H]2C[C@H](CO)[C@H]3OC(C)(C)O[C@H]32)n1 [Example 1001]
[4]
  EC90: > 5 µM

## Cc1nc(NCc2ccc(F)cc2)nc(N[C@@H]2C[C@H](CO)[C@H]3OC(C)(C)O[C@H]32)c1-c1nc2ccccc2s1 [Example 235]
[1]
  EC90: < 0.5 µM

## NC(=O)c1ccc2oc(-c3c(Cl)nc(N)nc3N[C@@H]3C[C@H](CO)[C@@H](O)[C@H]3O)cc2c1 [Example 173]
[2]
  EC90: > 5 µM

## COc1cccc2sc(-c3c(C)nc(NCC4CC4)nc3N[C@@H]3C[C@H](C(C)O)[C@@H](O)[C@H]3O)nc12 (stereo partly shown) [Example 1073]
[4]
  EC90: 0.5 to 5 µM

## OC[C@H]1C[C@@H](Nc2nc(NCCC(F)(F)F)nc(Cl)c2-c2nc3ccccc3s2)[C@H](O)[C@@H]1O [Example 217]
[2]
  EC90: < 0.5 µM

## Cc1nc(NCC(F)(F)F)nc(N[C@@H]2C[C@H](C(O)C(C)C)[C@@H](O)[C@H]2O)c1-c1nc2ccccc2s1 (stereo partly shown) [Example 1638]
[3]
  EC90: 0.5 to 5 µM

## CCc1cc2cc(-c3c(C)nc(NCC(F)(F)F)nc3N[C@@H]3C[C@H](CO)[C@@H](O)[C@H]3O)oc2cn1 [Example 517]
[1]
  EC90: < 0.5 µM

## Cc1nc(NC2CCC2)nc(N[C@@H]2C[C@H](CO)[C@@H](O)[C@H]2O)c1-c1nc2ccccc2s1 [Example 1503]
[3]
  EC90: 0.5 to 5 µM

## CCC(CC)Oc1cc2cc(-c3c(C)nc(NCC4CC4)nc3N[C@@H]3C[C@H](CO)[C@@H](O)[C@H]3O)oc2c(C)n1 [Example 44]
[6]
  EC90: > 25 µM

## Cc1nc(NCC(F)(F)F)nc(N[C@@H]2C[C@H](CN(CC3CC3)S(C)(=O)=O)[C@@H](O)[C@H]2O)c1-c1nc2ccccc2s1 [Example 1395]
[3]
  EC90: < 0.5 µM

## Cc1nc(NCc2ccccc2O)nc(N[C@@H]2C[C@H](CO)[C@@H](O)[C@H]2O)c1-c1nc2ccccc2s1 [Example 1220]
[4]
  EC90: < 0.5 µM

## CNc1ccc2sc(-c3c(C)nc(NCC(F)(F)F)nc3N[C@@H]3C[C@H](CO)[C@@H](O)[C@H]3O)nc2c1 [Example 260]
[1]
  EC90: < 0.5 µM

## CNc1nc(Cl)c(-c2nc3ccccc3s2)c(N[C@@H]2C[C@H](CO)[C@@H](O)[C@H]2O)n1 [Example 403]
[2]
  EC90: < 0.5 µM

## COC(=O)c1cccc(CNc2nc(C)c(-c3nc4ccccc4s3)c(N[C@@H]3C[C@H](CO)[C@@H](O)[C@H]3O)n2)c1 [Example 1218]
[4]
  EC90: 0.5 to 5 µM

## CCOc1nc(C)cc2cc(-c3c(C)nc(NC(C)c4ccc(C)cc4)nc3N[C@@H]3C[C@H](CO)[C@@H](O)[C@H]3O)oc12 (stereo partly shown) [Example 1249]
[4]
  EC90: 0.5 to 5 µM

## Cc1nc(NCc2cccs2)nc(N[C@@H]2C[C@H](CNS(C)(=O)=O)[C@@H](O)[C@H]2O)c1-c1nc2ccccc2s1 [Example 1330]
[4]
  EC90: < 0.5 µM

## CCOc1cc2cc(-c3c(C)nc(NCC4CC4)nc3N[C@@H]3C[C@H](CO)[C@@H](O)C3)oc2c(C)n1 [Example 52]
[6]
  EC90: 0.3 µM

## Cc1nc(N[C@@H](C2CC2)C(F)(F)F)nc(N[C@@H]2C[C@H](CO)[C@@H](O)[C@H]2O)c1-c1nc2ccccc2s1 [Example 2013]
[5]
  EC90: 0.5 to 5 µM

## CN(C)c1nc(Cl)c(-c2nc3ccccc3s2)c(N[C@@H]2C[C@H](CO)[C@@H](O)[C@H]2O)n1 [Example 408]
[2]
  EC90: < 0.5 µM
